We go through 17 compounds from patent publication US12590099B2, “Inhibitors of histone deacetylase useful for the treatment or prevention of HIV infection” (Merck Sharp & Dohme LLC, priority 2018, dated 2026).

The target of test [1] is T1, Recombinant human HDAC1 (Homo sapiens, UniProt Q13547).
T1 construct: FLAG (C); made in house
As to the kind of experiment: Human HDAC enzyme inhibitor Fluor-de-Lys assay, HDAC1. It counts as biochemical. As to the method:
(§1) Human HDAC Enzyme Inhibitor Fluor-De-Lys Assay
(§2) Recombinant human HDAC8 (BML-SE145-0100) and HDAC10 (BML-SE559-0050) enzymes, HDAC substrates BML-KI104 and BML-KI178, and HDAC developer solutions BML-KI105 and BML-KI176 were purchased from Enzo Life Sciences. […] HDAC inhibitor suberoylanilide hydroxamic acid (SAHA) was obtained from Indofine and trichostatin A (TSA) was obtained from Sigma-Aldrich.
(§3) Recombinant human HDAC1, HDAC2, and HDAC3/SMRT heterodimer were prepared by Merck Research Laboratories. […] The eluted protein was then passed over an anti-HDAC1 immunoaffinity column to remove any complexes containing HDAC1. […]
(§4) The histone deacetylase activities of HDAC1, HDAC2, HDAC3, HDAC6, and HDAC8 were measured in modified FLUOR DE LYS assays in 384-well format. In this assay, HDAC enzymes are initially incubated with an ε-acetyl (or -trifluoroacetyl)-L-lysine-containing substrate with a C-terminal amide having aminomethylcoumarin as the amine component. HDACs cleave the ε-acetyl group, rendering the resulting product susceptible to AMC cleavage by trypsin. The released AMC is then detected by its fluorescence.
(§5) The HDAC3/SMRT assay employed buffer B, consisting of 20 mM HEPES, pH 8.0, 1 mM MgCl2, 50 mM NaCl, 2.7 mM KCl, 0.05% BSA, 0.005% Tween 20, and 10 μM IP4. […] The HDAC8 assay employed buffer D, consisting of 20 mM HEPES, pH 8.0, 1 mM MgCl2, 100 mM NaCl, 20 mM KCl, 0.10% n-octyl-β-D-glucoside (Anatrace) and 0.05% BSA. All steps were performed at room temperature (23° C.). The assay was performed by pre-incubating serial dilutions of test compounds with the target HDAC prior to initiation with substrate. Each compound was titrated in a 10-point dose response, using a 1:3 fold dilution scheme, with 0.15 ul of solution added by ECH0555 to the plate, followed by the addition of 20 μl of the appropriate HDAC isoform diluted in appropriate assay buffer. […] Final conditions used for each assay were: 1. HDAC 1, 0.3 nM total enzyme, 20 μM substrate BML-KI104; 2. […] HDAC 3/SMRT, 0.3 nM total enzyme, 20 μM substrate BML-KI104; 4. […] The reactions were stopped and developed by addition of 30 ul of HDAC developer solution containing a saturating level of HDAC inhibitor as follows: 1.

For test [2], the target named is T2, Recombinant human HDAC2 (Homo sapiens, UniProt Q92769).
T2 construct: Full length human HDAC2-FLAG was expressed in baculovirus infected Sf9 cells; FLAG (C); made in house; host or cells: Sf9 (baculovirus)
As to the kind of experiment: Human HDAC enzyme inhibitor Fluor-de-Lys assay, HDAC2. It counts as biochemical. The procedure: as §1, §2, §3, §4, §5

Test [3] deals with T3, Recombinant human HDAC3/SMRT heterodimer (Homo sapiens, UniProt O15379).
T3 construct: FLAG (C); made in house
Nature of the test: Human HDAC enzyme inhibitor Fluor-de-Lys assay, HDAC3/SMRT. It counts as biochemical.

For test [4], the target named is T4, Recombinant human HDAC8 (Homo sapiens, UniProt Q9BY41).
T4 construct: purchased Enzo Life Sciences BML-SE145-0100
T4 sequence (Q9BY41 1-377): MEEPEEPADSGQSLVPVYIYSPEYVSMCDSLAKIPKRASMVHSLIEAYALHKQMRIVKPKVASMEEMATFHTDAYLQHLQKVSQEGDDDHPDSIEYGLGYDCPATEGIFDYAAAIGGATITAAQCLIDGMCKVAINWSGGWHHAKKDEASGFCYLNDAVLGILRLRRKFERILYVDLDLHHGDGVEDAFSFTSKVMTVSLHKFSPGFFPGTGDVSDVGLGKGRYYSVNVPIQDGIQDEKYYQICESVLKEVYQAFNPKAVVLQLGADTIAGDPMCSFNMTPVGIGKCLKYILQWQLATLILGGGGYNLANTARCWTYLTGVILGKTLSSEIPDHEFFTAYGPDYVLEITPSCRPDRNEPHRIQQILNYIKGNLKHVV
Nature of the test: Human HDAC enzyme inhibitor Fluor-de-Lys assay, HDAC8. It counts as biochemical.

Test [5] has as its system KARN cells (Jurkat 2C4). Nature of the test: cells. It counts as cell-based. The method in brief:
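Jurkat 2C4 (KARN) cells dosed with test compounds up to 40 μM final, 0.4% DMSO, overnight at 5% CO2; luciferase read by Steady-Glo luminescence after 10 min at room temperature. DMSO set as 0% and 2 μM SAHA as 100% induction; 4-parameter fit of percent activation.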

The mark [6] stands for this setting: Homo sapiens, Jurkat, read-out: Karn EC50 (nM) 0.1% NHS, 0.1% normal human serum.
Where [7] appears, read: Homo sapiens, Jurkat, read-out: Karn EC50 (nM) 5% NHS, 5% normal human serum.

Each structure is given as a SMILES string. Read-outs that look alike come from different tables or passages of the source.

T3 sequence (O15379 whole entry): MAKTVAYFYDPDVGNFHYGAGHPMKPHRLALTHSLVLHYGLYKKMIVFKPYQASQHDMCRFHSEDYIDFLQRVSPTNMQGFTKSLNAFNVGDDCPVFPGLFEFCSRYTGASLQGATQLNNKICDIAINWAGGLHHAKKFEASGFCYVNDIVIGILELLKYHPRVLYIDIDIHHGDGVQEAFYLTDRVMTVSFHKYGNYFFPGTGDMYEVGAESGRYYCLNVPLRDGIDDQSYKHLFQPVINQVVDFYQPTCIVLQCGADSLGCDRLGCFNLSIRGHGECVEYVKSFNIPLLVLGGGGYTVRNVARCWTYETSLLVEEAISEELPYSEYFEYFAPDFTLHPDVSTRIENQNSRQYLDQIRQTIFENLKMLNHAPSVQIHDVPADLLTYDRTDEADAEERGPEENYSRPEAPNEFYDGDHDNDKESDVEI
T3 sequence (Q9Y618 1-899 partner limits assumed): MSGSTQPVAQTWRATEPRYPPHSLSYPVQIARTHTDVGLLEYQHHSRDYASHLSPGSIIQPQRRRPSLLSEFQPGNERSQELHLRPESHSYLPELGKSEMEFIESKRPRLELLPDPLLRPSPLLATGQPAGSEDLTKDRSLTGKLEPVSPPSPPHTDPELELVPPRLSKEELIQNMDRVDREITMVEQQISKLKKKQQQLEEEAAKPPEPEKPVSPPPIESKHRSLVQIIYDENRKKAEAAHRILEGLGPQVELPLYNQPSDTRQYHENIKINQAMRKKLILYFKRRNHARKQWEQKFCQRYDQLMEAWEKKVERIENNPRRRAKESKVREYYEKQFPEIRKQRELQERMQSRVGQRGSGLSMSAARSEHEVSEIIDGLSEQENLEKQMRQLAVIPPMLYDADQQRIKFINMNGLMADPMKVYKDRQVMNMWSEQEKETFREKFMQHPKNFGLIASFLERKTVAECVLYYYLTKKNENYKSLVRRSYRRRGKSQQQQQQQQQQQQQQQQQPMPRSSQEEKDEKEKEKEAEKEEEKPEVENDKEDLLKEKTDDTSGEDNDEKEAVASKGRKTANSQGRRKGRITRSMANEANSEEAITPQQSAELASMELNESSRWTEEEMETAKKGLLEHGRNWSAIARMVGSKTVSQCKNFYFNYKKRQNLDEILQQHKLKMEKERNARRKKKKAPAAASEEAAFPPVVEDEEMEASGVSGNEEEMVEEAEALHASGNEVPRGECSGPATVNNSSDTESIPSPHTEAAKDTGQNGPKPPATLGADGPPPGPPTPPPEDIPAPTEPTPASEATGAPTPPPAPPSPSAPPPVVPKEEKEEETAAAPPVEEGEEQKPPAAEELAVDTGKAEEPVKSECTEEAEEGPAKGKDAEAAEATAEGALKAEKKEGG
T2 sequence (Q92769 whole entry): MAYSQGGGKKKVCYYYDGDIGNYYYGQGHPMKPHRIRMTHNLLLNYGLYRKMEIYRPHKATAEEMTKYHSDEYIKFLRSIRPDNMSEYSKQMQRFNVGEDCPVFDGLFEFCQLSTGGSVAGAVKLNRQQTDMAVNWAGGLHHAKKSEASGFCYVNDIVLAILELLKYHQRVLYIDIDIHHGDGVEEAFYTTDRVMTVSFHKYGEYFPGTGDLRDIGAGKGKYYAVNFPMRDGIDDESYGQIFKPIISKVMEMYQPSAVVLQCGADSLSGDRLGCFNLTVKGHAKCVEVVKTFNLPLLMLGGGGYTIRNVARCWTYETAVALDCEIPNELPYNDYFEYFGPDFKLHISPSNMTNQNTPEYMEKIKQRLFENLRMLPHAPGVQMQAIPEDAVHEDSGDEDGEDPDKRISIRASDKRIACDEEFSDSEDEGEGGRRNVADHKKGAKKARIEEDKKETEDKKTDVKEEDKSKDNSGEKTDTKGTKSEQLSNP
T1 sequence (Q13547 whole entry): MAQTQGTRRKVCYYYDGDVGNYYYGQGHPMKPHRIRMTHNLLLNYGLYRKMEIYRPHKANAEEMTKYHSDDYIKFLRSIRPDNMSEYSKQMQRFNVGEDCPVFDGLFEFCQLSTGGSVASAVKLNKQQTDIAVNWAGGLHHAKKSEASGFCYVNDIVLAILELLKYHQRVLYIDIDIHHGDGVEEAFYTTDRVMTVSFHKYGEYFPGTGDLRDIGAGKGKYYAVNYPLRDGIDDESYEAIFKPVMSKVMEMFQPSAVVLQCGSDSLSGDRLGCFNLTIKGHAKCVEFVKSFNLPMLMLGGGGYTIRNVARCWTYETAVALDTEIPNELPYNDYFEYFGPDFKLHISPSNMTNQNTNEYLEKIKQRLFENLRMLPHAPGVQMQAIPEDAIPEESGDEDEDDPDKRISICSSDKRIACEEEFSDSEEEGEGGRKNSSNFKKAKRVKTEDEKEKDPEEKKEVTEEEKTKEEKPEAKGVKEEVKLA

Turning to `CCC(=O)CCCCC[C@H](NC(=O)[C@H]1CC[C@]2(CC1)OC(=O)c1ncccc12)c1ncc(-c2cc3ccccc3nc2OC)[nH]1` [Compound 141], the IC50 (as a rule, the concentration that gives 50% inhibition) came out at 12.2 nM in test [1], 38.4 nM in test [2], 1.98 nM in test [3] and 2.11 µM in test [4]. The EC50 (commonly the midpoint of the concentration-response curve) was found to be 146 nM in test [5] (setting [6]) and 1450 nM in test [5] (setting [7]).

For the compound `CCC(=O)CCCCC[C@H](NC(=O)[C@H]1CC12CCN(CC)CC2)c1ncc(-c2ccc3c(=O)n(C(C)C)ccc3c2)[nH]1` [Compound 126], the IC50 came out at 0.19 nM in test [1], 1.3 nM in test [2], 0.19 nM in test [3] and 6.48 µM in test [4]. The EC50 in test [5] (setting [6]) turned out to be 53 nM; in test [5] (setting [7]), 33 nM.

Turning to `CCC(=O)CCCCC[C@H](NC(=O)C1=NOC2(CCN(C)CC2)C1)c1ncc(-c2cc3ccc(=O)n(C)c3cc2OC)o1` [Compound 193], the IC50 in test [1] was 3.01 nM; in test [2], 10.9 nM; in test [3], 1.81 nM; in test [4], over 0.9 µM. The values for the EC50 in test [5] (setting [6]) and in test [5] (setting [7]) were 284 nM and 297 nM, respectively.

For the compound `COc1cc2nc(C)ccc2cc1-c1cnc([C@H](CCCCCC(=O)CC2CC2)NC(=O)[C@H]2CC23CCN(C)CC3)o1` [Compound 195, (1S)—N-{(1S)-8-cyclopropyl-1-[5-(7-methoxy-2-methylquinolin-6-yl)-1,3-oxazol-2-yl]-7-oxooctyl}-6-methyl-6-azaspiro[2.5]octane-1-carboxamide], the IC50 in test [1] stood at 0.86 nM; in test [2] it was 9.7 nM; in test [3], 1.71 nM; in test [4], 7.86 µM. In addition, the EC50 was 163 nM in test [5] (setting [6]) and 216 nM in test [5] (setting [7]).

`CCC(=O)CCCCC[C@H](NC(=O)[C@H]1CC12CCN(C)CC2)c1ncc(-c2ccc3nc(CC)sc3c2)[nH]1` [Compound 149]: the half-inhibitory concentration (IC50) in test [1] is 0.5 nM; in test [2], 3.9 nM; in test [3], 0.62 nM; in test [4] it was 2.72 µM. The EC50 was 92 nM in test [5] (setting [6]) and 73 nM in test [5] (setting [7]).

As for `CCC(=O)CCCCC[C@H](NC(=O)[C@H]1CC12CCN(C)CC2)c1ncc(-c2ccc(C3CC3)nc2)[nH]1` [Compound 139], the half-maximal inhibitory concentration (IC50) in test [1] is 5.28 nM; in test [2] it was 26.1 nM; in test [3], 2.39 nM; in test [4], 12 µM. The EC50 in test [5] (setting [6]) was 532 nM; in test [5] (setting [7]), 552 nM.

For `CCC(=O)CCCCC[C@H](NC(=O)[C@H]1CC12CCN(C)CC2)c1ncc(-c2ccc3nc(N(C)C)ccc3c2)[nH]1` [Compound 66, (1S)—N-[(1S)-1-{5-[2-(dimethylamino)quinolin-6-yl]-1H-imidazol-2-yl}-7-oxononyl]-6-methyl-6-azaspiro[2.5]octane-1-carboxamide], the IC50 in test [1] was 147 nM; in test [2] it was over 900 nM; in test [3], 167 nM; in test [4], over 1.5 µM. Besides, the EC50 in test [5] (setting [6]) is 27 nM; in test [5] (setting [7]) it was 14 nM.

Regarding `CCC(=O)CCCCC[C@H](NC(=O)[C@H]1CC12CCN(C)CC2)c1ncc(-c2ccc3ncc(Cl)cc3c2)[nH]1` [Compound 140], the IC50 in test [1] is 0.97 nM; in test [2], 4.5 nM; in test [3] it was 0.95 nM; in test [4] it was 4.11 µM. Also, the half-maximal effective concentration (EC50) in test [5] (setting [6]) turned out to be 113 nM; in test [5] (setting [7]), 155 nM.

As for `CCC(=O)CCCCC[C@H](NC(=O)C1CN(C)C1)c1[nH]c(-c2ccc(F)cc2)nc1Br` [Compound 65, N-{(1S)-1-[4-bromo-2-(4-fluorophenyl)-1H-imidazol-5-yl]-7-oxononyl}-1-methylazetidine-3-carboxamide], the IC50 is 44.9 nM in test [1], 306 nM in test [2], 20.6 nM in test [3] and 40 µM in test [4]. The results for the EC50 in test [5] (setting [6]) and in test [5] (setting [7]) were 2190 nM and 4390 nM, respectively.

For `CN1CCC2(CC1)C[C@@H]2C(=O)N[C@@H](CCCCCC(=O)CC(F)(F)F)c1ncc(-c2ccc(F)cc2)[nH]1` [Compound 68], the IC50 is 8.74 nM in test [1], 126 nM in test [2], 8.59 nM in test [3] and 4.41 µM in test [4]. Further, the EC50 in test [5] (setting [6]) is over 40000 nM.

As for `CCC(=O)CCCCC[C@H](NC(=O)C1CC2(CCN(C)CC2)C1)c1ncc(-c2ccc3nn(C)cc3c2)[nH]1` [Compound 145], the 50% inhibitory concentration (IC50) came to 5.85 nM in test [1], 12.6 nM in test [2], 2.61 nM in test [3] and 4.27 µM in test [4]. Also, the values for the EC50 in test [5] (setting [6]) and in test [5] (setting [7]) were 641 nM and 746 nM, respectively.

Turning to `C=CCN1CCC2(CC1)C[C@@H]2C(=O)N[C@@H](CCCCCC(=O)CC)c1ncc(-c2cccc3c2C2CCC3N2CC=C)[nH]1` (stereo partly drawn) [Compound 180, (1S)—N-{(1S)-7-oxo-1-[5-(9-prop-2-en-1-yl-1,2,3,4-tetrahydro-1,4-epiminonaphthalen-5-yl)-1H-imidazol-2-yl]nonyl}-6-prop-2-en-1-yl-6-azaspiro[2.5]octane-1-carboxamide], the IC50 in test [1] was 5.4 nM; in test [2], 29.6 nM; in test [3], 2.55 nM; in test [4], 0.27 µM. Also, the half-maximal effective concentration (EC50) in test [5] (setting [6]) was 371 nM; in test [5] (setting [7]) it was 666 nM.

`CCC(=O)CCCCC[C@H](NC(=O)[C@H]1CC12CCN(CC1CC1)CC2)c1ncc(-c2cc3ccc(=O)n(C)c3cc2OC)o1` [Compound 199]: the IC50 in test [1] was determined as 0.35 nM; in test [2], 1.3 nM; in test [4], 0.3 µM. The EC50 turned out to be 62 nM in test [5] (setting [6]) and 83 nM in test [5] (setting [7]).

Take `CCC(=O)CCCCC[C@H](NC(=O)[C@H]1CC12CCN(C)CC2)c1ncc(-c2cnc3cccnc3c2)[nH]1` [Compound 67]: the IC50 is 19.6 nM in test [1], 101 nM in test [2] and 2.59 µM in test [4]. The figures for the EC50 in test [5] (setting [6]) and in test [5] (setting [7]) were 6480 nM and 6350 nM, respectively.

Regarding `CCC(=O)CCCCC[C@H](NC(=O)[C@H]1CC12CCN(C)CC2)c1ncc(-c2cc3ccccc3nc2OC)o1` [Compound 125], the IC50 in test [1] is under 1.5 nM; in test [2], 5.6 nM; in test [4], 23.4 µM. The results for the EC50 in test [5] (setting [6]) and in test [5] (setting [7]) were 154 nM and 256 nM, respectively.

In the case of `CCC(=O)CCCCC[C@H](NC(=O)[C@H]1CC12CCN(C)CC2)c1ncc(-c2cc3ccccc3nc2OC)o1` [Compound 77], the values for the IC50 in test [1], in test [2] and in test [4] were 1.53 nM, 4.8 nM and 21.7 µM, respectively. Also, the EC50 in test [5] (read-out: Karn EC50 (nM) 0.1% NHS, 0.1% normal human serum) amounted to 194 nM; in test [5] (read-out: Karn EC50 (nM) 5% NHS, 5% normal human serum), 311 nM.

Regarding `CCC(=O)CCCCC[C@H](NC(=O)C1=NOC2(CCN(C)CC2)C1)c1ncc(-c2cc3ccccc3nc2OC)[nH]1` [Compound 105], the IC50 is 0.92 nM in test [1], 5.3 nM in test [2] and 2.89 µM in test [4]. The EC50 was 126 nM in test [5] (setting [6]) and 942 nM in test [5] (setting [7]).
